Results reported in the supplement of paper PMC11208160.

Test: recombinant barcode read abundance after kanamycin selection (control-corrected) (log10(CPM+1)); higher = more efficient recombination; sequences stand for … in AGTGCAGAGAAAATCGGCCAGTTTTCTCTGCCTGCAGTCCGCATGCCGT…ATTTATGCAGCGGACTGCCTTTCTCCCAAAGTGATAAACCGGACAGTATCATGGACCGGTTTTCCCGGTAATCCGTATTTGCAAGGTTGGTTTCACT; site = the 11-nt target
Outline: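 A vector carrying a T7-inducible recombinase and the last 73 bp of the bridge RNA received, by Gibson cloning, oligos encoding a promoter, target, barcode and the first 104 bridge RNA bases under J23119. The pooled constructs entered E. coli together with a donor plasmid by electroporation. Selection used chloramphenicol/ampicillin/kanamycin with 0.1 mM IPTG, with chloramphenicol/ampicillin LB agar as the control, each in two replicates. Recombination efficiency is the averaged, control-corrected counts-per-million of barcodes at recombinant junctions, reported as log10(CPM+1).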

Sequence	recombinant barcode read abundance (log10)
CATATTACTTGGGTTCTAACCTGTTGCCTAA [CATATTACTAG_LTGcore_CT_RTGcore_TT] (site CATATTACTAG) (LTG core: CT, RTG core: TT)	0.105
CATATTACTTGGGTTCTAACCTGTTGCCTCA [CATATTACTAG_LTGcore_CT_RTGcore_TG] (site CATATTACTAG) (LTG core: CT, RTG core: TG)	0.0517
CATATTACTTGGGTTCTAACCTGTTGCCTCT [CATATTACTAG_LTGcore_CT_RTGcore_AG] (site CATATTACTAG) (LTG core: CT, RTG core: AG)	0.0539
CATATTACTTGGGTTCTAACCTGTTGCCTTC [CATATTACTAG_LTGcore_CT_RTGcore_GA] (site CATATTACTAG) (LTG core: CT, RTG core: GA)	0.084
CATATTACTTGGGTTCTAACCTGTTGCCTTT [CATATTACTAG_LTGcore_CT_RTGcore_AA] (site CATATTACTAG) (LTG core: CT, RTG core: AA)	0.0756
CATATTAGGTGGGTTCTAACCTGTTGCCTCC [CATATTACTAG_LTGcore_GG_RTGcore_GG] (site CATATTACTAG) (LTG core: GG, RTG core: GG)	0.117
CATATTATATGGGTTCTAACCTGTTGCCTAG [CATATTACTAG_LTGcore_TA_RTGcore_CT] (site CATATTACTAG) (LTG core: TA, RTG core: CT)	0.0615
CATATTATCTGGGTTCTAACCTGTTGCCTAG [CATATTACTAG_LTGcore_TC_RTGcore_CT] (site CATATTACTAG) (LTG core: TC, RTG core: CT)	0.127
CATATTATTTGGGTTCTAACCTGTTGCCTAA [CATATTACTAG_LTGcore_TT_RTGcore_TT] (site CATATTACTAG) (LTG core: TT, RTG core: TT)	0.0172
CATATTATTTGGGTTCTAACCTGTTGCCTAG [CATATTACTAG_LTGcore_TT_RTGcore_CT] (site CATATTACTAG) (LTG core: TT, RTG core: CT)	0
CGAGCCCAGTGGGTTCTAACCTGTTGCTGCT [CGAGCCCCTCA_LTGcore_AG_RTGcore_AG] (site CGAGCCCCTCA) (LTG core: AG, RTG core: AG)	0.189
CGAGCCCATTGGGTTCTAACCTGTTGCTGAG [CGAGCCCCTCA_LTGcore_AT_RTGcore_CT] (site CGAGCCCCTCA) (LTG core: AT, RTG core: CT)	0.104
CGAGCCCCCTGGGTTCTAACCTGTTGCTGGG [CGAGCCCCTCA_LTGcore_CC_RTGcore_CC] (site CGAGCCCCTCA) (LTG core: CC, RTG core: CC)	0.0674
CGAGCCCCTTGGGTTCTAACCTGTTGCTGTA [CGAGCCCCTCA_LTGcore_CT_RTGcore_TA] (site CGAGCCCCTCA) (LTG core: CT, RTG core: TA)	0.68
CGAGCCCGATGGGTTCTAACCTGTTGCTGAG [CGAGCCCCTCA_LTGcore_GA_RTGcore_CT] (site CGAGCCCCTCA) (LTG core: GA, RTG core: CT)	0.157
CGAGCCCGGTGGGTTCTAACCTGTTGCTGCC [CGAGCCCCTCA_LTGcore_GG_RTGcore_GG] (site CGAGCCCCTCA) (LTG core: GG, RTG core: GG)	0.18
CGAGCCCTATGGGTTCTAACCTGTTGCTGAG [CGAGCCCCTCA_LTGcore_TA_RTGcore_CT] (site CGAGCCCCTCA) (LTG core: TA, RTG core: CT)	0.312

Sequence	recombinant barcode read abundance (log10)
CGAGCCCTCTGGGTTCTAACCTGTTGCTGGA [CGAGCCCCTCA_LTGcore_TC_RTGcore_TC] (site CGAGCCCCTCA) (LTG core: TC, RTG core: TC)	0.139
CGCGCCCAGTGGGTTCTAACCTGTTGCGGAG [CGCGCCCCTCC_LTGcore_AG_RTGcore_CT] (site CGCGCCCCTCC) (LTG core: AG, RTG core: CT)	0.0753
CGCGCCCATTGGGTTCTAACCTGTTGCGGAT [CGCGCCCCTCC_LTGcore_AT_RTGcore_AT] (site CGCGCCCCTCC) (LTG core: AT, RTG core: AT)	0.0457
CGCGCCCCTTGGGTTCTAACCTGTTGCGGTC [CGCGCCCCTCC_LTGcore_CT_RTGcore_GA] (site CGCGCCCCTCC) (LTG core: CT, RTG core: GA)	0.041
CGCGCCCGCTGGGTTCTAACCTGTTGCGGAG [CGCGCCCCTCC_LTGcore_GC_RTGcore_CT] (site CGCGCCCCTCC) (LTG core: GC, RTG core: CT)	0.198
CGCGCCCGTTGGGTTCTAACCTGTTGCGGAC [CGCGCCCCTCC_LTGcore_GT_RTGcore_GT] (site CGCGCCCCTCC) (LTG core: GT, RTG core: GT)	0.421
CGCGCCCTCTGGGTTCTAACCTGTTGCGGAG [CGCGCCCCTCC_LTGcore_TC_RTGcore_CT] (site CGCGCCCCTCC) (LTG core: TC, RTG core: CT)	0.264
CGCGCCCTCTGGGTTCTAACCTGTTGCGGGA [CGCGCCCCTCC_LTGcore_TC_RTGcore_TC] (site CGCGCCCCTCC) (LTG core: TC, RTG core: TC)	0.307
CGCGCCCTGTGGGTTCTAACCTGTTGCGGCA [CGCGCCCCTCC_LTGcore_TG_RTGcore_TG] (site CGCGCCCCTCC) (LTG core: TG, RTG core: TG)	0.0883
CGCGCCCTTTGGGTTCTAACCTGTTGCGGAA [CGCGCCCCTCC_LTGcore_TT_RTGcore_TT] (site CGCGCCCCTCC) (LTG core: TT, RTG core: TT)	0.156
CGGTCCCAGTGGGTTCTAACCTGTTGCCACT [CGGTCCCCTTG_LTGcore_AG_RTGcore_AG] (site CGGTCCCCTTG) (LTG core: AG, RTG core: AG)	0.258
CGGTCCCCTTGGGTTCTAACCTGTTGCCAAC [CGGTCCCCTTG_LTGcore_CT_RTGcore_GT] (site CGGTCCCCTTG) (LTG core: CT, RTG core: GT)	0.0684
CGGTCCCCTTGGGTTCTAACCTGTTGCCAAT [CGGTCCCCTTG_LTGcore_CT_RTGcore_AT] (site CGGTCCCCTTG) (LTG core: CT, RTG core: AT)	0.133
CGGTCCCCTTGGGTTCTAACCTGTTGCCACT [CGGTCCCCTTG_LTGcore_CT_RTGcore_AG] (site CGGTCCCCTTG) (LTG core: CT, RTG core: AG)	0.0728
CGGTCCCGCTGGGTTCTAACCTGTTGCCAAG [CGGTCCCCTTG_LTGcore_GC_RTGcore_CT] (site CGGTCCCCTTG) (LTG core: GC, RTG core: CT)	0.313
CGGTCCCGCTGGGTTCTAACCTGTTGCCAGC [CGGTCCCCTTG_LTGcore_GC_RTGcore_GC] (site CGGTCCCCTTG) (LTG core: GC, RTG core: GC)	0.475
CGGTCCCGGTGGGTTCTAACCTGTTGCCACC [CGGTCCCCTTG_LTGcore_GG_RTGcore_GG] (site CGGTCCCCTTG) (LTG core: GG, RTG core: GG)	0.213
